Measurements: EP0072027A1, “Antiviral compounds” (THE WELLCOME FOUNDATION LIMITED, priority 1981, dated 1983)
Marks after values point to notes of the source that are not given here.

Tests used:
[1] = tested on: Equine rhinopneumonitis virus (EHV-1); experiment: In vivo activity against equine rhinopneumonitis virus in hamsters (Example 14), intraperitoneal and oral; design: species or system Syrian weanling hamsters
Method: Male cream Syrian weanling hamsters, 40-50 g, 21-24 days old, were caged in groups of 5 and given water and food ad lib.
Equine rhinopneumonitis virus (EHV-1), hamster adapted Vaccine Strain 'Pneumabort' was used; the vaccine was diluted 10^-1 in tissue culture fluid and this stock stored in 1 ml aliquots in sealed glass vials at -70°C. On Day 0 hamsters to be infected received 0.2 ml stock vaccine virus, diluted further 2 x 10^-1 in phosphate buffered saline, subcutaneously in the left flank.
9-/(2-Hydroxy-l-hydroxymethylethoxy)methyl/guanine (hereinafter referred to as 759U) and acyclovir were made up as aqueous solutions in sterile distilled water in the concentrations specified below.
Intraperitoneal administration: from Day 0 to Day 4, inclusive, hamsters received 759U or acyclovir in divided twice daily doses in aqueous solution, the concentration of 759U varying as following, namely 5 mg/ml to give a dose rate of 100 or 50 mg/kg/day, 1.2 mg/ml for 20 mg/kg/day, […] for 4 mg/kg/day and 0.036 mg/ml for 2 mg/kg/day. Untreated control hamsters received an equivalent volume of sterile distilled water.
A stock solution of 759U was made in sterile distilled water at 0.304 mg/ml and then diluted in 3-fold steps to 0.101 and 0.034 mg/ml. Hamsters were given medicated drinking water for 5 days commencing 5 hours pre-infection. A control group was supplied with unmedicated water.
Acyclovir was dissolved in sterile distilled water at 2 mg/ml with the addition of a little sodium hydroxide and warming to 42°C to facilitate solution. Hamsters were given medicated drinking water, containing acyclovir at 2 mg/ml, for 5 days commencing 5 hours pre-infection. […] A control group supplied with unmedicated water was set up.

[2] = tested on: herpes virus; experiment: In vivo activity against herpetic encephalitis, intracerebrally infected mice (Example 17); conditions: for Mean reciprocal survival time: 100 mg/kg oral twice daily for 5 days, around 300 x LD50 intracerebrally, 14 days observation
Method: Swiss mice weighing 12-15 g were anaesthetised with ether and inoculated intracerebrally with 0.025 ml of a tissue culture preparation of type herpes virus. The mice were examined daily for sign of herpes encephalitis i.e. cerebral irritation leading to paralysis, coma and death. […] The viscera of the mice were examined for signs of infection with bacteria or other agents and if no abnormalities were found the brains were removed asceptically and ground to a smooth paste. The homogenate was resuspended in 4 ml of tissue culture maintenance medium to each brain, and mixed with glycerol in the ratio 2:1. Mouse brains weigh approximately 400 mg and the preparation thus represented a dilution of 10^-1.
The stocks of virus thus prepared were titrated in mice to determine the LD50 titre by inoculating mice intracerebrally with 10-fold dilutions of the stock preparation of virus and subsquently examined twice daily for signs of infection. The LD50 titre was calculated by the Karber method.
Groups of 5 mice were infected intracerebrally with stock virus diluted to give a dose of around 300 x LD50. The compound under test was administered twice daily as a suspension by the oral route at a dose of 100 mg/kg. The animals were examined twice daily and survival times were recorded to the nearst half-day. Dosing was carried out for 5 days and the total period of observation was 14 days. Survival times were converted to recipocals and the mean survival time was determined for each group L. Bauer, D. J., Brit. J. Exp. Path., 1960, 41, 130).

[3] = tested on: herpes simplex virus type 1; experiment: Comparative in vivo activity against herpetic encephalitis in mice (Example 18); design: species or system CD.1 mice; conditions: for Mean reciprocal survival time: 100 mg/kg/dose twice daily for 4½ days, 300 LD50
Method: CD.1 mice weighing 16 - 20 gm were obtained from Charles River, Manston, Kent, U.K. The animals were housed in groups of approximately 10 and were given food and water ad lib.
The compounds namely acyclovir, 134U, 759U and 457U, were prepared as suspensions or solutions in sterile water at a concentration of 20 mg/ml prior to each experiment, and were stored at 4°C during the dosing period.
The ICI strain of herpes simplex virus type 1 was used for all experiments at a concentration of 300 LD50 (10^5 pfu)/ml). Dilutions from virus stocks ([…]) were prepared in PBS 'A'.
The test procedure is analoguous to that described in Example 13.
Three experiments were performed, in which three routes of compound administration were examined: i) subcutaneous, ii) oral and iii) intraperitoneal. […]

[4] = 50 mg/kg/day intraperitoneal, Day 2, 10 in group
[5] = 50 mg/kg/day intraperitoneal, Day 3, 10 in group
[6] = 50 mg/kg/day intraperitoneal, Day 4, 10 in group
[7] = 50 mg/kg/day intraperitoneal, Day 5, 10 in group
[8] = 50 mg/kg/day intraperitoneal, Day 6, 10 in group
[9] = 50 mg/kg/day intraperitoneal, Day 7, 10 in group
[10] = 100 mg/kg/day intraperitoneal, Day 2, 10 in group
[11] = 100 mg/kg/day intraperitoneal, Day 3, 10 in group
[12] = 100 mg/kg/day intraperitoneal, Day 4, 10 in group
[13] = 100 mg/kg/day intraperitoneal, Day 5, 10 in group
[14] = 100 mg/kg/day intraperitoneal, Day 6, 10 in group
[15] = 100 mg/kg/day intraperitoneal, Day 7, 10 in group

For Nc1nc2c(ncn2COC(CO)CO)c(=O)[nH]1 [Example 759U, 9-[(2-hydroxy-1-hydroxymethylethoxy)methyl]guanine], the Cumulative mortality ([1]; 2 mg/kg/day intraperitoneal, Day 2, 10 in group) was 0, the Cumulative mortality ([1]; 2 mg/kg/day intraperitoneal, Day 3, 10 in group) was 0 and the Cumulative mortality ([1]; 2 mg/kg/day intraperitoneal, Day 4, 10 in group) was 0. It also gave a Cumulative mortality ([1]; 2 mg/kg/day intraperitoneal, Day 5, 10 in group) of 0, a Cumulative mortality ([1]; 2 mg/kg/day intraperitoneal, Day 6, 10 in group) of 0 and a Cumulative mortality ([1]; 2 mg/kg/day intraperitoneal, Day 7, 10 in group) of 0. For the same compound, the “control of virus-induced mortality” value ([1]; 2 mg/kg/day intraperitoneally) was “complete control”, the Cumulative mortality ([1]; 3 mg/kg/day oral (drinking water), Day 2, 10 in group) was 0 and the Cumulative mortality ([1]; 3 mg/kg/day oral (drinking water), Day 3, 10 in group) was 1. It also gave a Cumulative mortality ([1]; 3 mg/kg/day oral (drinking water), Day 4, 10 in group) of 1, a Cumulative mortality ([1]; 3 mg/kg/day oral (drinking water), Day 5, 10 in group) of 1 and a Cumulative mortality ([1]; 3 mg/kg/day oral (drinking water), Day 6, 10 in group) of 1. It also gave a Cumulative mortality ([1]; 3 mg/kg/day oral (drinking water), Day 7, 10 in group) of 1, a Cumulative mortality ([1]; 4 mg/kg/day intraperitoneal, Day 2, 10 in group) of 0 and a Cumulative mortality ([1]; 4 mg/kg/day intraperitoneal, Day 3, 10 in group) of 0. It also gave a Cumulative mortality ([1]; 4 mg/kg/day intraperitoneal, Day 4, 10 in group) of 0, a Cumulative mortality ([1]; 4 mg/kg/day intraperitoneal, Day 5, 10 in group) of 0 and a Cumulative mortality ([1]; 4 mg/kg/day intraperitoneal, Day 6, 10 in group) of 0. It also gave a Cumulative mortality ([1]; 4 mg/kg/day intraperitoneal, Day 7, 10 in group) of 0, a Cumulative mortality ([1]; 13 mg/kg/day oral (drinking water), Day 2, 10 in group) of 0 and a Cumulative mortality ([1]; 13 mg/kg/day oral (drinking water), Day 3, 10 in group) of 0. For the same compound, the Cumulative mortality ([1]; 13 mg/kg/day oral (drinking water), Day 4, 10 in group) was 0, the Cumulative mortality ([1]; 13 mg/kg/day oral (drinking water), Day 5, 10 in group) was 0 and the Cumulative mortality ([1]; 13 mg/kg/day oral (drinking water), Day 6, 10 in group) was 0. The Cumulative mortality ([1]; 13 mg/kg/day oral (drinking water), Day 7, 10 in group) was 0, the Cumulative mortality ([1]; 20 mg/kg/day intraperitoneal, Day 2, 10 in group) was 0 and the Cumulative mortality ([1]; 20 mg/kg/day intraperitoneal, Day 3, 10 in group) was 0. For the same compound, the Cumulative mortality ([1]; 20 mg/kg/day intraperitoneal, Day 4, 10 in group) was 0, the Cumulative mortality ([1]; 20 mg/kg/day intraperitoneal, Day 5, 10 in group) was 0 and the Cumulative mortality ([1]; 20 mg/kg/day intraperitoneal, Day 6, 10 in group) was 0. The Cumulative mortality ([1]; 20 mg/kg/day intraperitoneal, Day 7, 10 in group) was 0, the Cumulative mortality ([1]; 39 mg/kg/day oral (drinking water), Day 2, 10 in group) was 0 and the Cumulative mortality ([1]; 39 mg/kg/day oral (drinking water), Day 3, 10 in group) was 0. It also gave a Cumulative mortality ([1]; 39 mg/kg/day oral (drinking water), Day 4, 10 in group) of 0, a Cumulative mortality ([1]; 39 mg/kg/day oral (drinking water), Day 5, 10 in group) of 0 and a Cumulative mortality ([1]; 39 mg/kg/day oral (drinking water), Day 6, 10 in group) of 0. It also gave a Cumulative mortality ([1]; 39 mg/kg/day oral (drinking water), Day 7, 10 in group) of 0, a Cumulative mortality [1, 4] of 0 and a Cumulative mortality [1, 5] of 0. It also gave a Cumulative mortality [1, 6] of 0, a Cumulative mortality [1, 7] of 0 and a Cumulative mortality [1, 8] of 0. The Cumulative mortality [1, 9] was 0, the Cumulative mortality [1, 10] was 0 and the Cumulative mortality [1, 11] was 0. For the same compound, the Cumulative mortality [1, 12] was 0, the Cumulative mortality [1, 13] was 0 and the Cumulative mortality [1, 14] was 0. For the same compound, the Cumulative mortality [1, 15] was 1*, the “efficacy against EHV-1” value ([1]; orally at 3 mg/kg/day) was “only limited mortality” and the “efficacy against EHV-1” value ([1]; orally at 13 mg/kg/day) was “completely effective”. The “Mean reciprocal survival time” value [2] was 0.15, the “activity given orally to intracerebrally infected mice compared with acyclovir” value ([2]; same conditions) was “much greater than acyclovir” and the “Mean reciprocal survival time” value ([3]; Oral) was 0.146. The “antiviral effect compared with acyclovir and 134U” value ([3]; any of the three routes, difference highly significant) was “greatest antiviral effect”, the “Mean reciprocal survival time” value ([3]; i.p.) was 0.093 and the “Mean reciprocal survival time” value ([3]; s.c.) was 0.084.
Nc1nc2c(ncn2COCCO)c(=O)[nH]1 [acyclovir, 9-(2-hydroxyethoxymethyl) guanine, reference compound] showed a Cumulative mortality [1, 4] of 0, a Cumulative mortality [1, 5] of 1 and a Cumulative mortality [1, 6] of 2. For the same compound, the Cumulative mortality [1, 7] was 5, the Cumulative mortality [1, 8] was 6 and the Cumulative mortality [1, 9] was 6. The Cumulative mortality [1, 10] was 0, the Cumulative mortality [1, 11] was 0 and the Cumulative mortality [1, 12] was 1*. For the same compound, the Cumulative mortality [1, 13] was 2*, the Cumulative mortality [1, 14] was 2* and the Cumulative mortality [1, 15] was 3*. The Cumulative mortality ([1]; 100 mg/kg/day oral (drinking water 2 mg/ml), Day 2, 12 in group) was 0, the Cumulative mortality ([1]; 100 mg/kg/day oral (drinking water 2 mg/ml), Day 3, 12 in group) was 2 and the Cumulative mortality ([1]; 100 mg/kg/day oral (drinking water 2 mg/ml), Day 4, 12 in group) was 5. For the same compound, the Cumulative mortality ([1]; 100 mg/kg/day oral (drinking water 2 mg/ml), Day 5, 12 in group) was 7, the Cumulative mortality ([1]; 100 mg/kg/day oral (drinking water 2 mg/ml), Day 6, 12 in group) was 8 and the “efficacy against EHV-1” value ([1]; orally at 100 mg/kg/day for 5 days) was “poor efficacy”. The “Mean reciprocal survival time” value [2] was 0.26, the “Mean reciprocal survival time” value ([3]; Oral) was 0.237 and the “Mean reciprocal survival time” value ([3]; i.p.) was 0.236. For the same compound, the “Mean reciprocal survival time” value ([3]; s.c.) was 0.174.
